# Measured values: the supplement of paper PMC10307832
# Key:
# Assay in all cases: relative viability (nuclei count vs DMSO), 5 days (fraction); higher = more cells survive
# NCI-H1563 = system: NCI-H1563
# Summary of the method: (§1)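 Relative viability divides the nuclei count in treated wells by that in vehicle wells. Lung cancer cell lines were seeded in 1536-well plates, dosed by pin tool the next day, and fixed and stained after 5 days in one step with final 0.05% Triton X-100, 1% formaldehyde and 1 ug/ml Hoechst. Dosing was a single drug or a fixed anchor-drug dose plus five library-drug doses (not always all listed) in √10 steps, and values are medians of duplicate plates imaged at 4×.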
# NCI-H1623 = system: NCI-H1623
# Summary of the method: as §1
# NCI-H1648 = system: NCI-H1648
# Summary of the method: as §1
# NCI-H2342 = system: NCI-H2342
# Summary of the method: as §1
# NCI-H522 = system: NCI-H522
# Summary of the method: as §1
# SW 900 = system: SW 900
# Summary of the method: as §1
structure (smiles),measurement,setting,value
Cc1cnc(-c2cnc(NCCNc3ccc(C#N)cn3)nc2-c2ccc(Cl)cc2Cl)[nH]1 + COc1cccc2cc(-c3nc([C@H]4CC[C@H](C(=O)O)CC4)n4ncnc(N)c34)[nH]c12 [OSI-027] (partner 0.5 µM),relative viability,NCI-H1563; first compound 0.08 µM,0.798
same,relative viability,NCI-H1563; first compound 0.253 µM,0.733
same,relative viability,NCI-H1563; first compound 0.8 µM,0.758
same,relative viability,NCI-H1563; first compound 2.53 µM,0.78
same,relative viability,NCI-H1623; first compound 0.08 µM,0.478
same,relative viability,NCI-H1623; first compound 0.253 µM,0.417
same,relative viability,NCI-H1623; first compound 0.8 µM,0.413
same,relative viability,NCI-H1623; first compound 2.53 µM,0.48
same,relative viability,NCI-H1648; first compound 0.08 µM,0.24
same,relative viability,NCI-H1648; first compound 0.253 µM,0.259
same,relative viability,NCI-H1648; first compound 0.8 µM,0.242
same,relative viability,NCI-H1648; first compound 2.53 µM,0.289
same,relative viability,NCI-H2342; first compound 0.08 µM,0.653
same,relative viability,NCI-H2342; first compound 0.253 µM,0.546
same,relative viability,NCI-H2342; first compound 0.8 µM,0.556
same,relative viability,NCI-H2342; first compound 2.53 µM,0.53
same,relative viability,NCI-H522; first compound 0.08 µM,0.653
same,relative viability,NCI-H522; first compound 0.253 µM,0.705
same,relative viability,NCI-H522; first compound 0.8 µM,0.647
same,relative viability,NCI-H522; first compound 2.53 µM,0.885
same,relative viability,SW 900; first compound 0.08 µM,0.695
same,relative viability,SW 900; first compound 0.253 µM,0.56
same,relative viability,SW 900; first compound 0.8 µM,0.502
same,relative viability,SW 900; first compound 2.53 µM,0.546
Cc1cnc(-c2cnc(NCCNc3ccc(C#N)cn3)nc2-c2ccc(Cl)cc2Cl)[nH]1 + Cc1cc(Nc2cc(N3CCN(C)CC3)nc(Sc3ccc(NC(=O)C4CC4)cc3)n2)n[nH]1 [Tozasertib] (partner 0.1 µM),relative viability,NCI-H1623; first compound 0.08 µM,0.477
same,relative viability,NCI-H1623; first compound 0.253 µM,0.426
same,relative viability,NCI-H1623; first compound 0.8 µM,0.414
same,relative viability,NCI-H1623; first compound 2.53 µM,0.417
same,relative viability,NCI-H1648; first compound 0.08 µM,0.487
same,relative viability,NCI-H1648; first compound 0.253 µM,0.502
same,relative viability,NCI-H1648; first compound 0.8 µM,0.465
same,relative viability,NCI-H1648; first compound 2.53 µM,0.52
same,relative viability,NCI-H2342; first compound 0.08 µM,0.519
same,relative viability,NCI-H2342; first compound 0.253 µM,0.513
same,relative viability,NCI-H2342; first compound 0.8 µM,0.507
same,relative viability,NCI-H2342; first compound 2.53 µM,0.505
same,relative viability,NCI-H522; first compound 0.08 µM,0.629
same,relative viability,NCI-H522; first compound 0.8 µM,0.506
same,relative viability,NCI-H522; first compound 2.53 µM,0.591
same,relative viability,SW 900; first compound 0.08 µM,0.667
same,relative viability,SW 900; first compound 0.253 µM,0.511
same,relative viability,SW 900; first compound 0.8 µM,0.439
same,relative viability,SW 900; first compound 2.53 µM,0.415
O=C(O)CCCCC(CCSCc1ccccc1)SCc1ccccc1 (stereo unspecified) [CPI-613] + COc1cccc2cc(-c3nc([C@H]4CC[C@H](C(=O)O)CC4)n4ncnc(N)c34)[nH]c12 [OSI-027] (partner 0.5 µM),relative viability,NCI-H1563; first compound 5 µM,0.76
same,relative viability,NCI-H1563; first compound 15.81 µM,0.652
same,relative viability,NCI-H1563; first compound 50 µM,0.814
same,relative viability,NCI-H1563; first compound 158.11 µM,0.52
same,relative viability,NCI-H1563; first compound 500 µM,0.223
same,relative viability,NCI-H1623; first compound 5 µM,0.431
same,relative viability,NCI-H1623; first compound 15.81 µM,0.436
same,relative viability,NCI-H1623; first compound 50 µM,0.438
same,relative viability,NCI-H1623; first compound 158.11 µM,0.368
same,relative viability,NCI-H1623; first compound 500 µM,0.408
same,relative viability,NCI-H1648; first compound 5 µM,0.273
same,relative viability,NCI-H1648; first compound 15.81 µM,0.241
same,relative viability,NCI-H1648; first compound 50 µM,0.22
same,relative viability,NCI-H1648; first compound 500 µM,0.203
same,relative viability,NCI-H2342; first compound 5 µM,0.568
same,relative viability,NCI-H2342; first compound 15.81 µM,0.572
same,relative viability,NCI-H2342; first compound 50 µM,0.643
same,relative viability,NCI-H2342; first compound 158.11 µM,0.552
same,relative viability,NCI-H2342; first compound 500 µM,0.643
same,relative viability,NCI-H522; first compound 5 µM,0.706
same,relative viability,NCI-H522; first compound 15.81 µM,0.747
same,relative viability,NCI-H522; first compound 50 µM,0.7
same,relative viability,NCI-H522; first compound 158.11 µM,0.612
same,relative viability,NCI-H522; first compound 500 µM,0.467
same,relative viability,SW 900; first compound 5 µM,0.44
same,relative viability,SW 900; first compound 15.81 µM,0.547
same,relative viability,SW 900; first compound 50 µM,0.65
same,relative viability,SW 900; first compound 158.11 µM,0.245
same,relative viability,SW 900; first compound 500 µM,0.0283
O=C(O)CCCCC(CCSCc1ccccc1)SCc1ccccc1 (stereo unspecified) [CPI-613] + Cc1cc(Nc2cc(N3CCN(C)CC3)nc(Sc3ccc(NC(=O)C4CC4)cc3)n2)n[nH]1 [Tozasertib] (partner 0.1 µM),relative viability,NCI-H1623; first compound 5 µM,0.442
same,relative viability,NCI-H1623; first compound 15.81 µM,0.387
same,relative viability,NCI-H1623; first compound 50 µM,0.421
same,relative viability,NCI-H1623; first compound 158.11 µM,0.417
same,relative viability,NCI-H1623; first compound 500 µM,0.426
same,relative viability,NCI-H1648; first compound 5 µM,0.473
same,relative viability,NCI-H1648; first compound 15.81 µM,0.312
same,relative viability,NCI-H1648; first compound 50 µM,0.589
same,relative viability,NCI-H1648; first compound 500 µM,0.391
same,relative viability,NCI-H2342; first compound 5 µM,0.523
same,relative viability,NCI-H2342; first compound 15.81 µM,0.527
same,relative viability,NCI-H2342; first compound 50 µM,0.511
same,relative viability,NCI-H2342; first compound 158.11 µM,0.484
same,relative viability,NCI-H2342; first compound 500 µM,0.625
same,relative viability,NCI-H522; first compound 5 µM,0.512
same,relative viability,NCI-H522; first compound 15.81 µM,0.563
same,relative viability,NCI-H522; first compound 50 µM,0.573
same,relative viability,NCI-H522; first compound 158.11 µM,0.419
same,relative viability,NCI-H522; first compound 500 µM,0.325
same,relative viability,SW 900; first compound 5 µM,0.511
same,relative viability,SW 900; first compound 15.81 µM,0.557
same,relative viability,SW 900; first compound 50 µM,0.473
same,relative viability,SW 900; first compound 158.11 µM,0.199
same,relative viability,SW 900; first compound 500 µM,0.0732
